# Measured values as given in PubChem BioAssay (NCI).
#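 Each compound was tested at five concentrations against cells in 96-well plates for 48 hours. GI50 is the concentration that inhibits growth by half. The concentration for full growth arrest is given as TGI.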
# Legend:
# Assay in all cases: DTP human tumour cell line panel, 48 h
# [1] = system: 786-0 renal
# [2] = system: A498 renal
# [3] = system: A549 NSCLC
# [4] = system: ACHN renal
# [5] = system: BT-549 breast
# [6] = system: CAKI-1 renal
# [7] = system: CCRF-CEM leukemia
# [8] = system: COLO 205 colon
# [9] = system: DU-145 prostate
# [10] = system: EKVX NSCLC
# [11] = system: HCC-2998 colon
# [12] = system: HCT-116 colon
# [13] = system: HCT-15 colon
# [14] = system: HL-60(TB) leukemia
# [15] = system: HOP-62 NSCLC
# [16] = system: HOP-92 NSCLC
# [17] = system: HS 578T breast
# [18] = system: HT29 colon
# [19] = system: IGROV1 ovarian
# [20] = system: K-562 leukemia
# [21] = system: KM12 colon
# [22] = system: LOX IMVI melanoma
# [23] = system: M14 melanoma
# [24] = system: MALME-3M melanoma
# [25] = system: MCF7 breast
# [26] = system: MDA-MB-231 breast
# [27] = system: MDA-MB-435
# [28] = system: MDA-MB-468 breast
# [29] = system: MOLT-4 leukemia
# [30] = system: NCI-H226 lung
smiles,measurement,setting,value
C#CCNC(=O)CCC(=O)OC[C@]12CC[C@@H](C(=C)C)[C@@H]1C1CC[C@@H]3[C@@]4(C)CCCNC(C)(C)[C@@H]4CC[C@@]3(C)[C@]1(C)CC2 (some centres undefined),GI50,[1],8.29 µM
same,TGI,[1],23.6 µM
same,GI50,[2],10.3 µM
same,TGI,[2],20.9 µM
same,GI50,[3],7.12 µM
same,TGI,[3],16.7 µM
same,GI50,[4],10.1 µM
same,TGI,[4],18.9 µM
same,GI50,[5],11.3 µM
same,TGI,[5],21.1 µM
same,GI50,[6],8.1 µM
same,TGI,[6],17.2 µM
same,GI50,[7],4.24 µM
same,TGI,[7],37.1 µM
same,GI50,[8],2.25 µM
same,TGI,[8],7.29 µM
same,GI50,[9],10 µM
same,TGI,[9],21.5 µM
same,GI50,[10],6.5 µM
same,TGI,[10],14.2 µM
same,GI50,[11],2.55 µM
same,TGI,[11],10.3 µM
same,GI50,[12],3.31 µM
same,TGI,[12],27.4 µM
same,GI50,[13],3.89 µM
same,TGI,[13],12.4 µM
same,GI50,[14],2.37 µM
same,TGI,[14],14 µM
same,GI50,[15],11.7 µM
same,TGI,[15],23.7 µM
same,GI50,[16],7.54 µM
same,TGI,[16],19 µM
same,GI50,[17],9.96 µM
same,TGI,[17],24.2 µM
same,GI50,[18],2.71 µM
same,TGI,[18],13.9 µM
same,GI50,[19],7.29 µM
same,TGI,[19],16.3 µM
same,GI50,[20],1.78 µM
same,TGI,[20],16.3 µM
same,GI50,[21],8.73 µM
same,TGI,[21],18.8 µM
same,GI50,[22],1.23 µM
same,TGI,[22],2.83 µM
same,GI50,[23],6.83 µM
same,TGI,[23],19 µM
same,GI50,[24],9.03 µM
same,TGI,[24],18.5 µM
same,GI50,[25],2.36 µM
same,TGI,[25],9.66 µM
same,GI50,[26],8.83 µM
same,TGI,[26],17.7 µM
same,GI50,[27],6.9 µM
same,TGI,[27],15.2 µM
same,GI50,[28],2.21 µM
same,TGI,[28],10.5 µM
same,GI50,[29],2.42 µM
same,TGI,[29],18.7 µM
same,GI50,[30],7.58 µM
